{"source": "paper PMC6141739", "about": "“TFPI-2 Protects Against Gram-Negative Bacterial Infection” (Frontiers in Immunology, 2018)", "key": {"Fc-IgG": {"test_system": "Fc-IgG", "test": "Binding to Fc fragment of IgG, western blot", "details": "6 μM EDC34 with 6 μM Fc-IgG, 30 min 37°C; western blot (Figure 1E)", "protocol": "(§1) Six μM of EDC34 was either incubated alone or with IgGs in 10 mM Tris, 150 mM NaCl, pH 7.4 buffer, under similar concentrations for 15, 30, 60, 120 min or 24 h at 37°C. In another experiment, 6 μM of EDC34 was pre-incubated with 50 μM of TCEP (tris(2-carboxyethyl)phosphine) for 30 min at room temperature before IgG (6 μM) was added. The mixture was further incubated for 24 h at 37°C. In another experiment, 6 μM of IgG or Fab-IgG or Fc-IgG were incubated with or without 6 μM of EDC34 in 10 mM Tris, 150 mM NaCl, pH 7.4 buffer for 30 min at 37°C. Proteins and peptides were transferred to nitrocellulose membranes (Hybond-C), blocked by 5% (w/v) skimmed milk, washed and incubated with rabbit polyclonal antibodies to CAK27 or rabbit polyclonal antibodies to IgG (or 1:1,000) (Dako) or rabbit polyclonal antibodies to C1q (or 1:1,000) (Dako). Polyclonal swine anti-rabbit immunoglobulin secondary HRP antibody (1:1,000) was used for detection and an enhanced chemiluminescent Substrate (LumiGLO) developing system (Upstate cell signaling solutions)."}, "IgG": {"test_system": "IgG", "test": "Binding to IgG, SDS-PAGE and immunoblotting", "design": "species or system human", "protocol": "(§2) Three μg of IgG or IgA or IgE or IgM were incubated in 20 μl of buffer (10 mM Tris, 150 mM NaCl, pH 7.4), either alone or with 0.5 μg (6 μM) of EDC34 for 1 h at 37°C. Samples were diluted in SDS buffer and analyzed under non-reducing conditions by SDS-PAGE on Criterion TGX Any kD Gel (BioRad). Alternatively, EDC34 (6 μM) was incubated either alone or in PBS containing 20% serum, citrate, lepirudin, EDTA plasma at different time points (15, 30, 60, and 120 min). Samples were analyzed under non-reducing conditions.\nas §1, with “Polyclonal swine anti-rabbit immunoglobulin secondary HRP antibody (1:1,000) was used for detection and an enhanced chemiluminescent Substrate (LumiGLO) developing system (Upstate cell signaling solutions).” left out"}, "[1]": {"test_system": "human IgG on E. coli bacteria", "test": "Pull down assay, IgG opsonization on the bacterial surface", "design": "species or system Escherichia coli", "protocol": "In a total volume of 500 μl PBS buffer, 2 μM of EDC34, and 8 μM of IgG were incubated for 24 h at 37°C. Subsequently, E. coli bacteria (1–2 × 10^6 cfu/ml) were added, and then the mixture was incubated for additional 1 h. In a parallel experiment, the bacteria in the presence of absence of EDC34 were incubated for 30 min at 37°C before IgG was added for 1 h at 37°C. Samples were then centrifuged, bacterial pellets were washed twice with PBS and then re-suspended in 360 μl of 0.1 M glycine, pH 2.0 to elute the bound proteins. The pH of the eluted material was raised to 7.5 with 1 M Tris. Thereafter, 100 μl of 100% TCA were added to precipitate the eluted proteins followed by incubation for 10 min at −20° C followed by a centrifugation step for 20 min at 15,000 × g (4°C). The pellets were washed with acetone and left to air dry before they were dissolved in loading dye and analyzed under non-reducing conditions by SDS-PAGE, followed by Western blot analysis."}, "IgA": {"test_system": "IgA", "test": "Binding to IgA, SDS-PAGE and immunoblotting", "design": "species or system human", "details": "0.5 μg EDC34 with 3 μg IgA, 1 h 37°C; immunoblot (Figure 1C)", "protocol": "as §2"}, "human IgG": {"test_system": "human IgG", "test": "Surface plasmon resonance on IgG-coated chip", "assay_type": "binding", "details": "SPR, IgG on CM5 chip, peptide 25–400 nM, 25°C, Hepes running buffer pH 7.5 (Figure 3E)", "protocol": "IgG was immobilized (15 μg/mL) on a CM5 sensor chip via amine coupling in a 10 mM sodium acetate buffer (pH 4). A blank immobilization was performed in flow cell one. EDC34 was injected at different concentrations (25–400 nM) at a flow rate of 30 μl/min and a temperature of 25°C over the flow cells using a running buffer containing 10 mm Hepes, 150 mm NaCl, 0.005% surfactant P20, and 3.4 mM EDTA (pH 7.5). Regeneration of the sensor surface was conducted in 0.5 M sodium chloride. The analysis was performed using a Biacore X100 instrument (GE Healthcare, Uppsala, Sweden) and the data was fitted using a 1:1 binding model."}, "Escherichia coli [2]": {"test_system": "Escherichia coli", "test": "Viable count assay (VCA)", "assay_type": "cell-based, Escherichia coli ATCC 25922", "protocol": "Escherichia coli bacteria were grown to mid-logarithmic phase in 10 ml of (3% w/v) Todd-Hewitt (TH), bacteria were washed and diluted in buffer 10 mM Tris, pH 7.4, containing 150 mM NaCl, either alone or with the presence of human 20% citrate plasma, lepirudin, heparin, EDTA plasma, or serum. 1–2 × 10^6 cfu/ml bacteria were incubated in a total volume of 50 μl with the indicated concentrations of C-terminal TFPI-2 derived peptides for 2 h at 37°C. Alternatively, 1–2 × 10^6 cfu/ml of E. coli bacteria in the presence or absence of EDC34 were incubated either in PBS alone or PBS supplemented with 25% of human citrated plasma, immunoglobulins depleted citrated plasma, or immunoglobulins depleted citrated plasma supplemented with 10 μg of IgG/μl, for 2 h at 37°C. Serial of dilutions of the reaction mixture were plated on TH agar plates, followed by the incubation at 37°C overnight. The number of colony forming units was determined as a percentage to control sample."}, "Escherichia coli [3]": {"test_system": "Escherichia coli", "test": "Radial diffusion assay (RDA)", "assay_type": "cell-based", "details": "100 μM peptide, high salt (150 mM NaCl), n = 3 (Figure 3C,D)", "protocol": "Escherichia coli was grown to mid-logarithmic phase in 10 ml (3% w/v) of trypticase soy broth (TSB). Bacteria were washed and re-suspended in 10 mM Tris, pH 7.4 to obtain a dilution of 1% of bacterial suspension (1–2 × 10^9 colony forming units cfu/ml). Subsequently, 6.6 μl of bacteria were added to 15 ml of melted underlay agarose gel consisting of 0.03% (w/v) TSB, 1% (w/v) low electroendosmosis type (EEO) agarose and 0.02% (v/v) Tween 20 (Sigma) with or without 150 mM NaCl. The mixture was poured to a 144 mm sterile petri dish and left to solidify. After that, 4 mm diameter wells were punctured and 100 μM peptides were added to each well. Plates were incubated for 3 h at 37°C and then covered by adding 15 ml of over-lay gel consisting of 6% TSB and 1% Low-EEO agarose in Millipore water. After 16–24 h of incubation at 37°C, the peptides diffusion around each well formed the zone of inhibition, which corresponded to the peptide's antimicrobial activity."}, "IgE": {"biological_target": "IgE (Homo sapiens, UniProt P01854)", "sequence (P01854 1-428 isoform P01854-1)": "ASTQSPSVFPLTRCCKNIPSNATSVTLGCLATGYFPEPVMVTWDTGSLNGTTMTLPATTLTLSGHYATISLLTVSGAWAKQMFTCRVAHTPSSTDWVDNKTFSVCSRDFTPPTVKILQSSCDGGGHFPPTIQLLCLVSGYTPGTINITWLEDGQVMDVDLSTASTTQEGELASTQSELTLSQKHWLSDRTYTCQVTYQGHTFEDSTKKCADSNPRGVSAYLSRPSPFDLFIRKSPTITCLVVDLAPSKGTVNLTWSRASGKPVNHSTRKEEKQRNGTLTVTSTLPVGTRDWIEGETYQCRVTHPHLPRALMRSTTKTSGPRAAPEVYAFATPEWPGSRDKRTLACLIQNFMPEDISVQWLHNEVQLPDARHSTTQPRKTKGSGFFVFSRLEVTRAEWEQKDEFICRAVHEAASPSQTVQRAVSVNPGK", "test": "Binding to IgE, SDS-PAGE and immunoblotting", "details": "0.5 μg EDC34 with 3 μg IgE, 1 h 37°C; immunoblot (Figure 1C)", "protocol": "as §2"}, "C1q": {"test_system": "C1q", "details": "cited from earlier work", "description": "(§3) Previous studies have shown that complement activation can be amplified by targeting certain proteins such as complement factor C3 ([33]). Elvington et al. for instance described in 2012 a method showing that complement activation can be used as cancer therapy. To this end the authors employed a fusion protein of a complement receptor and an IgG Fc fragment to improve the outcome of mAb therapy in a murine metastatic cancer model ([33]). […] Moreover EDC34 is able to up re ..."}, "Gram-negative bacteria": {"test_system": "Gram-negative bacteria", "details": "cited from earlier work", "description": "as §3"}, "C3a": {"test_system": "C3a", "details": "cited from earlier work", "description": "as §3"}, "[4]": {"test_system": "C1q on the surface of E. coli bacteria", "test": "Pull down assay, C1q recruitment to the bacterial surface", "design": "species or system Escherichia coli", "details": "citrate plasma with 10 μM EDC34, 1 h 37°C; anti-C1q immunoblot; versus plasma alone (Figure 2B)"}, "IgM": {"test_system": "IgM", "sequence (P01871 1-453 isoform P01871-1)": "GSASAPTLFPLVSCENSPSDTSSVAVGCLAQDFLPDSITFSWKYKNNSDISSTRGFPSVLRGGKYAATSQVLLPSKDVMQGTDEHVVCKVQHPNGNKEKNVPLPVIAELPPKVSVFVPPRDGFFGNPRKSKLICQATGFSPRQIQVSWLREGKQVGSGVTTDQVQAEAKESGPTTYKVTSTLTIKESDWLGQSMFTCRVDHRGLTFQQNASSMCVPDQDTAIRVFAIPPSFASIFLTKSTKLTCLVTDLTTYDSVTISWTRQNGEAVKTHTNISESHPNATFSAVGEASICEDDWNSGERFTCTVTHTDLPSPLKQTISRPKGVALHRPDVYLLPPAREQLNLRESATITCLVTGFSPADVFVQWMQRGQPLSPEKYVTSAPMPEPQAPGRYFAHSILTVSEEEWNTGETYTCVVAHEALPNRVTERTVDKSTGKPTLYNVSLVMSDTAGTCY", "sequence (P01591 23-159, further chain)": "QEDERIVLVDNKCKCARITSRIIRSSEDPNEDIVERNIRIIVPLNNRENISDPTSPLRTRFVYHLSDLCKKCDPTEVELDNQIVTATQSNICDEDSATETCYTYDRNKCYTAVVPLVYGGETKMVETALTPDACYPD", "test": "Binding to IgM, SDS-PAGE and immunoblotting", "design": "species or system human", "details": "0.5 μg EDC34 with 3 μg IgM, 1 h 37°C; immunoblot (Figure 1C)", "protocol": "as §2"}, "Fab-IgG": {"test_system": "Fab-IgG", "test": "Binding to Fab fragment of IgG, western blot", "details": "6 μM EDC34 with 6 μM Fab-IgG, 30 min 37°C; western blot (Figure 1E)", "protocol": "as §1"}, "P. aeruginosa": {"test_system": "P. aeruginosa", "test": "Viable count assay (VCA)", "assay_type": "cell-based, Pseudomonas aeruginosa", "details": "20% human citrate plasma, 2 h 37°C (Figure 3A,B); text does not separate the two bacteria"}}, "data": [{"sequence": "EDCKRACAKALKKKKKMPKLRFASRIRKIRKKQF [EDC34, C-terminal peptide derived from human TFPI-2]", "values": [{"measurement": "binding to Fc fragment of IgG", "setting": "Fc-IgG", "result": "able to bind"}, {"measurement": "binding to IgG", "setting": "IgG; 0.5 μg EDC34 with 3 μg IgG, 10 mM Tris, 150 mM NaCl, pH 7.4, 1 h 37°C, immunoblot (Figure 1C)", "result": "avidly binds"}, {"measurement": "interaction with IgG over time", "setting": "IgG; EDC34 and IgG 1:1 (6 μM), 37°C, after 24 h incubation (Figure 1D)", "result": "entirely absorbed"}, {"measurement": "opsonization of immunoglobulin on the bacterial surface", "setting": "[1]; EDC34 (2 μM) pre-incubated with IgG (8 μM) 24 h in PBS, then E. coli 1 h 37°C (Figure 2A)", "result": "increased opsonization"}, {"measurement": "opsonization of immunoglobulin on the bacterial surface", "setting": "[1]; EDC34 first preincubated with E. coli bacteria, then mixed with human IgG (Figure 2A)", "result": "less pronounced"}, {"measurement": "binding to IgA", "setting": "IgA", "result": "avidly binds"}, {"measurement": "affinity for human IgG", "setting": "human IgG", "result": "highest affinity"}, {"measurement": "antimicrobial activity against E. coli", "setting": "Escherichia coli [2]; EDC34 6 μM, 10 mM Tris, 150 mM NaCl, pH 7.4 with 20% citrate plasma, 2 h 37°C, n = 3 (Figure 1A)", "result": "completely eradicate the bacteria"}, {"measurement": "antimicrobial activity against E. coli", "setting": "Escherichia coli [2]; EDC34 6 μM, buffer with 20% EDTA plasma, 2 h 37°C, n = 3 (Figure 1A)", "result": "decreased"}, {"measurement": "bacterial survival rate", "setting": "Escherichia coli [2]; EDC34 6 μM, buffer with 20% heparin plasma, 2 h 37°C, n = 3 (Figure 1A)", "result": "exceeding 80%"}, {"measurement": "antimicrobial activity against E. coli", "setting": "Escherichia coli [2]; EDC34 6 μM, buffer with 20% lepirudin plasma, 2 h 37°C, n = 3 (Figure 1A)", "result": "decreased"}, {"measurement": "antimicrobial activity against E. coli", "setting": "Escherichia coli [2]; EDC34 6 μM, buffer with 20% serum, 2 h 37°C, n = 3 (Figure 1A)", "result": "decreased"}, {"measurement": "killing of E. coli", "setting": "Escherichia coli [2]; EDC34 in PBS alone, 2 h 37°C, n = 3 (Figure 2C)", "result": "moderate killing activity"}, {"measurement": "killing of E. coli", "setting": "Escherichia coli [2]; EDC34 in PBS with 25% citrate plasma, 2 h 37°C, n = 3 (Figure 2C)", "result": "~100", "unit": "%"}, {"measurement": "antimicrobial activity", "setting": "Escherichia coli [2]; EDC34 in PBS with 25% immunoglobulin-depleted citrate plasma reconstituted with IgG, 2 h 37°C, n = 3 (Figure 2C)", "result": "retained its full antimicrobial activity"}, {"measurement": "bacterial survival", "setting": "Escherichia coli [2]; EDC34 in PBS with 25% immunoglobulin-depleted citrate plasma, 2 h 37°C, n = 3 (Figure 2C)", "result": "Bacterial survival was increased"}, {"measurement": "antimicrobial activity, zone of inhibition", "setting": "Escherichia coli [3]", "result": "able impair bacterial growth"}, {"measurement": "binding to IgE", "setting": "IgE", "result": "avidly binds"}, {"measurement": "binding of C1q to bacterial surfaces", "setting": "C1q", "result": "enhances the binding of C1q to bacterial surfaces"}, {"measurement": "eradication of Gram-negative bacteria in vivo", "setting": "Gram-negative bacteria", "result": "significant capacity to eradicate"}, {"measurement": "antimicrobial activity of C3a", "setting": "C3a", "result": "able to up regulate the antimicrobial activity of C3a"}, {"measurement": "C1q at the surface of E. coli bacteria", "setting": "[4]", "result": "recruitment of C1q"}, {"measurement": "binding to IgM", "setting": "IgM", "result": "avidly binds"}, {"measurement": "binding to Fab fragment of IgG", "setting": "Fab-IgG", "result": "only the Fc fragment is able to bind"}]}, {"sequence": "DAAQEPTGNNAET [DAA14, control peptide derived from the N-terminal region of human TFPI-2, reference compound]", "values": [{"measurement": "antimicrobial activity in plasma, P. aeruginosa", "setting": "P. aeruginosa", "result": "no antimicrobial activity"}, {"measurement": "antimicrobial activity in plasma, E. coli", "setting": "Escherichia coli [2]; 20% human citrate plasma, 2 h 37°C (Figure 3A,B), text does not separate the two bacteria", "result": "no antimicrobial activity"}]}]}
